Results on eight compounds are retold here after patent US20100048597A1 (Novartis AG, priority 2006, published 2010).

The target of one test is T1, CDK2/cyclinA (Homo sapiens, UniProt P24941).
T1 construct: purchased Millipore
Put plainly: CDK2/cyclinA kinase assay, IMAP fluorescence polarization. Format: biochemical. The method in brief:
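Recombinant purified enzyme reactions run 2 hours at room temperature with 1% DMSO final. Stopped with 1× Developer buffer (100% A) and IMAP beads 1/400, then 1 hour more before fluorescence polarization read. IC50 from mP values versus log concentration.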

Another test addresses CDK5 (Homo sapiens, UniProt Q00535). Put plainly: CDK5 kinase assay (Table F). Format: biochemical.
A further test has as its target T2, CDK7/cyclinH/MAT1 (Homo sapiens, UniProt P50613).
T2 construct: purchased Millipore
The test can be described thus: CDK7/cyclinH/Mat1 kinase assay, IMAP fluorescence polarization. Format: biochemical. The procedure: Kinase assays were performed on recombinant purified enzymes using the non-radioactive IMAP fluorescence polarization assay format.
Compound stocks were prepared and diluted in DMSO and were added to kinase reactions at a 1/100 dilution for a final concentration of 1% DMSO. The components were added together to final concentrations listed in the tables below and incubated for two hours at room temperature.
The reactions were stopped by addition of stop solution.
CDK9/CDK1/CDK7: final stop concentration is 1× Developer buffer (85% A/15% B), IMAP beads 1/400
The samples were allowed to incubate for one more hour at room temperature and then the fluorescence polarization was measured. The plate normalized millipolarization (mP) values were plotted against the log of compound concentration for each compound and IC50 values were calculated using the spotfire IC50 calculator and confirmed by visual analysis.
(In fluorescence polarisation assays a small probe gives low polarisation when free and higher when bound to something large.)

For test [1], the system named is RNA Polymerase II CTD Serine2 Phosphorylation. The test can be described thus: H5 (Ser2) Ab High Content Screen: RNA Polymerase II CTD Serine2 Phosphorylation Assay in Hep3B cells. Format: cell-based. The note with it: Homo sapiens, 2 hours with compound, H5 antibody staining. As for the experimental part: H5 (also referred as Ser2) Ab High Content Screen: RNA Polymerase II CTD Serine2 Phosphorylation Assay
1. Cells are plated into 384 well plates: 30 μl of Hep3B cells (4,000 cells/30 μl) in DMEM with 3% FBS are plated into wells of a tissue culture treated clear bottomed 384 well plate. Cells are allowed to adhere during an overnight incubation.
2. Cells are treated with compounds for two hours: 10 μl of DMEM with 3% FBS is added to each well with a final concentration of DMSO equal to 1%. Cells are incubated with compounds for 2 hours.
3. Cells are fixed and permeabilized. Cells are washed with 30 mM HEPES pH=7.3 then fixed in 4% paraformaldehyde in 30 mM HEPES pH=7.3 for one hour at room temperature. The fix is removed by washing the cells with Tris buffered saline (TBS) and the cells are permeabilized by incubation in TBS with 0.5% triton X-100 for 30 minutes at room temperature. Triton is removed by washing the cells with TBS.
4. […] Incubate primary H5 Ab (1/250 ) overnight at 4 degrees in TBS with 1% BSA and 0.1% Tween-20. The next day wash cells with TBS. […] Wash cells with PBS.
5. Measure staining using the In-cell Analyzer system from GE Healthcare.

The target in the next test is T3, CDK1/cyclinB (Homo sapiens, UniProt P06493).
T3 construct: purchased Millipore
Put plainly: CDK1/cyclinB kinase assay, IMAP fluorescence polarization. Format: biochemical. The note with it: read-out: CDK1 IC50. The essentials: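 IMAP fluorescence polarization assay on recombinant purified enzyme, compounds at final 1% DMSO. Reaction run 2 h at room temperature, stopped, held 1 h more before reading polarization.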

The next test concerns the target CDK4 (Homo sapiens, UniProt P11802). The test can be described thus: CDK4 kinase assay (Table F). Format: biochemical.
The target in a further test is T4, CDK9/cyclinT1 (Homo sapiens, UniProt P50750).
T4 construct: purchased Millipore
The test can be described thus: CDK9/cyclinT1 kinase assay, IMAP fluorescence polarization. Format: biochemical. The method in brief:
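Recombinant purified enzyme complexes assayed by IMAP fluorescence polarization with 1% final DMSO, 2 h at room temperature; stopped with 1× Developer buffer (85% A/15% B) plus IMAP beads 1/400, then 1 h further at room temperature. IC50 from normalized mP versus log compound concentration.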

One may read the IC50 as the concentration needed to halve the response being measured.

T2 sequence (P50613 whole entry): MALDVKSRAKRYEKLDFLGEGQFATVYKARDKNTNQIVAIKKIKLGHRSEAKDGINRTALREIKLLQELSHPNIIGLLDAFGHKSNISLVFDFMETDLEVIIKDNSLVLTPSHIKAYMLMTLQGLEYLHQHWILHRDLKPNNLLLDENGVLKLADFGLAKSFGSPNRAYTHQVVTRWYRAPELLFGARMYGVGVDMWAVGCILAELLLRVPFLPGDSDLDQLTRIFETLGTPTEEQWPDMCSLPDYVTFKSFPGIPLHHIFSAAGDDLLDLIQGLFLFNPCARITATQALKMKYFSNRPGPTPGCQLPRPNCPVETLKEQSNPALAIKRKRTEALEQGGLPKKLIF
T2 sequence (P51946 whole entry partner): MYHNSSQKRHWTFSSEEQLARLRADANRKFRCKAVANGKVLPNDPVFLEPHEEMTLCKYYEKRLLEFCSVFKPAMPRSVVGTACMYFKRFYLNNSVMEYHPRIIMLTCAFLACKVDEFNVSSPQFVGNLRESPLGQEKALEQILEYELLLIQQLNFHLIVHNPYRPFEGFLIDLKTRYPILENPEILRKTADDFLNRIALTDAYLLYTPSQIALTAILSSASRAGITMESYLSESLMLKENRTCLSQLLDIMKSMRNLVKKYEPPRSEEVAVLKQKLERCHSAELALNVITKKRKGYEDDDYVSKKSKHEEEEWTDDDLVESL
T2 sequence (P51948 whole entry partner): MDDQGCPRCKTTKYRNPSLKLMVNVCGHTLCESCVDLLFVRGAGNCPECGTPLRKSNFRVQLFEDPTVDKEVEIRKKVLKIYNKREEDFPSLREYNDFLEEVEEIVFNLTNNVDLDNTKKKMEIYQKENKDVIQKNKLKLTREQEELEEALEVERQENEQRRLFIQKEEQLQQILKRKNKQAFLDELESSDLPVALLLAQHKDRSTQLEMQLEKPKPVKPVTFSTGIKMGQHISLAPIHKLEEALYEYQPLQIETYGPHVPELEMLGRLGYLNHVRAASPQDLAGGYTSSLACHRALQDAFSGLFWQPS
Sequence of CDK5 (Q00535 whole entry, species assumed): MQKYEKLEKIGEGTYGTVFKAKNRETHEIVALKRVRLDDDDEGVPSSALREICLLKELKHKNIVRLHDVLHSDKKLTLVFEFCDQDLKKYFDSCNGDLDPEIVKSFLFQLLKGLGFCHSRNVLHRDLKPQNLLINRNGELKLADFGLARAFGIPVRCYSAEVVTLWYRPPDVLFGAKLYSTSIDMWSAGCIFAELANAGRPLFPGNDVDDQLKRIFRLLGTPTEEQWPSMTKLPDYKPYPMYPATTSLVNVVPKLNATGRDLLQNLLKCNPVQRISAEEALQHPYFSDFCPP
Sequence of CDK5 (Q15078 whole entry partner, species assumed): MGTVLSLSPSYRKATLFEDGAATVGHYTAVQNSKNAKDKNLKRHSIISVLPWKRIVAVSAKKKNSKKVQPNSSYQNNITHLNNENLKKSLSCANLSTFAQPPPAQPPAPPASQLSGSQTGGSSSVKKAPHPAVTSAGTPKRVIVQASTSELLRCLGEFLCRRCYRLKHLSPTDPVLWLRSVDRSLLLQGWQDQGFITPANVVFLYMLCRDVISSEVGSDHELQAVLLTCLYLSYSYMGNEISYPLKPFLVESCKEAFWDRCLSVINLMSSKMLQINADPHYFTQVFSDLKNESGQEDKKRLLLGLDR
T3 sequence (P06493 whole entry): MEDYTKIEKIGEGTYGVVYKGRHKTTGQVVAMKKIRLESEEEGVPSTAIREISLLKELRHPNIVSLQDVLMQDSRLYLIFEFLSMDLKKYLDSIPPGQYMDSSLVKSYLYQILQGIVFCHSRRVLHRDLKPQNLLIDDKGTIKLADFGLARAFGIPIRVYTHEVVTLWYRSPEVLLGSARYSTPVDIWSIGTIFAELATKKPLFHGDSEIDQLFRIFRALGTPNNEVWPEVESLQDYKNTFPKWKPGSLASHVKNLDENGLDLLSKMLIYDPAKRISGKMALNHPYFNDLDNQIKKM
T3 sequence (P14635 whole entry partner): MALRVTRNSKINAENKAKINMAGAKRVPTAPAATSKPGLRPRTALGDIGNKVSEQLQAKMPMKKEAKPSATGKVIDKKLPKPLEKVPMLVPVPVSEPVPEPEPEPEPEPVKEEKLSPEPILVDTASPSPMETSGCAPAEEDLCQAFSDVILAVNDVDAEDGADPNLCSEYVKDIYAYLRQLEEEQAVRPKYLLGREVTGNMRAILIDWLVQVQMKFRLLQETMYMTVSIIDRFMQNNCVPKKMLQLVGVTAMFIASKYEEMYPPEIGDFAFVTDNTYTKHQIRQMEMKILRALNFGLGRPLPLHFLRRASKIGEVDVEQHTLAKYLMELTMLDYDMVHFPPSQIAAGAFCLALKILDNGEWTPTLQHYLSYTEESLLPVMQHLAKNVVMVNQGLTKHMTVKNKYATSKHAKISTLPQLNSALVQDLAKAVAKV
Sequence of CDK4 (P11802 whole entry, species assumed): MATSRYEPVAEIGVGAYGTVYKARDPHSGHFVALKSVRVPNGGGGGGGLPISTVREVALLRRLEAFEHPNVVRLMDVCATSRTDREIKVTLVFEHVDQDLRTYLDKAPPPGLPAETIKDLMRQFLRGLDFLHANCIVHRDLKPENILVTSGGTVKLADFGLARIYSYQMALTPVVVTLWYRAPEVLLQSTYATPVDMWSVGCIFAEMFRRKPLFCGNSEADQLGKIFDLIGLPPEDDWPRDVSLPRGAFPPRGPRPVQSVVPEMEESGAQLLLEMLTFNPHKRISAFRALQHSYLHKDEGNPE
Sequence of CDK4 (P24385 whole entry partner, species assumed): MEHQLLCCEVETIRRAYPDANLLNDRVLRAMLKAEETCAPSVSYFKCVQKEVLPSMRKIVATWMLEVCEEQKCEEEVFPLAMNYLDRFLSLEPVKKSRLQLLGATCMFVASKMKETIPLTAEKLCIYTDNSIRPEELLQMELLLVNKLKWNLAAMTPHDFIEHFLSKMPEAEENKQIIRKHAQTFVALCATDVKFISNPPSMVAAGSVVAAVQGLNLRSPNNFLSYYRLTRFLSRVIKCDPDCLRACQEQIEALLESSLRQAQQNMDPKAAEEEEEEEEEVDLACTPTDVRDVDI
T4 sequence (P50750 whole entry): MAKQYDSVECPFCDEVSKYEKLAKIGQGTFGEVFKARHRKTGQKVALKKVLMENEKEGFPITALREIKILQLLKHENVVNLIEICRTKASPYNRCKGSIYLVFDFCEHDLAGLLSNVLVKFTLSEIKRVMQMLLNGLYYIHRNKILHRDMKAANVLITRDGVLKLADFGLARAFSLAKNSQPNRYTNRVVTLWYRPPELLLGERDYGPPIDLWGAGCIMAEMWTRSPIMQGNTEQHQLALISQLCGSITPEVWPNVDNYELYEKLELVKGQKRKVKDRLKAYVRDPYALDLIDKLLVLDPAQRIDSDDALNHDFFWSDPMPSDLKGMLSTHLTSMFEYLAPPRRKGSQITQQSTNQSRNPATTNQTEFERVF
T4 sequence (O60563 whole entry partner): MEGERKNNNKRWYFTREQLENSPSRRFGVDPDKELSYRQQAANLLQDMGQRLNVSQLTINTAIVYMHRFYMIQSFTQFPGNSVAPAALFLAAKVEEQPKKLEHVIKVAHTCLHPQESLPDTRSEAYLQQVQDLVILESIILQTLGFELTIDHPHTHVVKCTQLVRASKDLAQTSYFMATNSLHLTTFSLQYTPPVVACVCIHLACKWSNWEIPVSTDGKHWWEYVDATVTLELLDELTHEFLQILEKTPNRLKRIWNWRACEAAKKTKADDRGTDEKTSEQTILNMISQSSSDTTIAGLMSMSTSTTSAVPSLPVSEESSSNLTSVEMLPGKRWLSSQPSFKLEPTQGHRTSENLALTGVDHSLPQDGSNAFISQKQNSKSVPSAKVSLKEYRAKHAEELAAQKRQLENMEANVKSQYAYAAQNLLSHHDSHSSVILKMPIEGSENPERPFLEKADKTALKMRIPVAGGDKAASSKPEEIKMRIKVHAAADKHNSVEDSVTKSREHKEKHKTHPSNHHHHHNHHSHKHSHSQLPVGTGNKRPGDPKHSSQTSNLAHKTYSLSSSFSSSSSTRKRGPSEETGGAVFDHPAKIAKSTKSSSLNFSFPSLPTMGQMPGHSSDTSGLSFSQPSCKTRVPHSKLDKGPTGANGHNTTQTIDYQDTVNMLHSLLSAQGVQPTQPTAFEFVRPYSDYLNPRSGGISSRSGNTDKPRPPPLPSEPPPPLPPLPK

`CNCCNc1nccc(-c2ccnc(Nc3cccc(Cl)c3)n2)c1C` [Compound 3, N-{4-[2-(3-Chloro-phenylamino)-pyrimidin-4-yl]-3-methyl-pyridin-2-yl}-N′-methyl-ethane-1,2-diamine]: the IC50 (against CDK2/cyclinA; against CDK5; on CDK7/cyclinH/MAT1; in test [1]; at CDK1/cyclinB; at CDK4) was less than 5 µM in each case. The IC50 at CDK9/cyclinT1 is less than 5 µM.

For `CC(=O)NCCCNc1nccc(-c2ccnc(Nc3cccc(Cl)c3)n2)c1C` [Compound 6, N-(3-{4-[2-(3-Chloro-phenylamino)-pyrimidin-4-yl]-3-methyl-pyridin-2-ylamino}-propyl)-acetamide], the IC50 was less than 5 µM against CDK2/cyclinA; less than 5 µM on CDK7/cyclinH/MAT1; 5 to 15 µM in test [1]; 5 to 15 µM at CDK1/cyclinB; 5 to 15 µM against CDK4; less than 5 µM at CDK9/cyclinT1.

In the case of `CC(=O)NCCCNc1nccc(-c2ccnc(Nc3cccc([N+](=O)[O-])c3)n2)c1C` [Compound 25, N-(3-{3-Methyl-4-[2-(3-nitro-phenylamino)-pyrimidin-4-yl]-pyridin-2-ylamino}-propyl)-acetamide], the IC50 against CDK2/cyclinA is less than 5 µM; against CDK5, less than 5 µM; against CDK7/cyclinH/MAT1, less than 5 µM; in test [1], less than 5 µM; at CDK1/cyclinB, less than 5 µM; against CDK4, 5 to 15 µM. In addition, at CDK9/cyclinT1, the IC50 was less than 5 µM.

Turning to `CC(=O)NCCCNc1cc(-c2nc(Nc3cccc(Cl)c3)ncc2C)ccn1` [Compound 32, N-(3-{4-[2-(3-Chloro-phenylamino)-5-methyl-pyrimidin-4-yl]-pyridin-2-ylamino}-propyl)-acetamide], the IC50 is less than 5 µM against CDK2/cyclinA; less than 5 µM on CDK5; less than 5 µM at CDK7/cyclinH/MAT1; less than 5 µM in test [1]; less than 5 µM on CDK1/cyclinB; 15 to 50 µM against CDK4. Further, the IC50 against CDK9/cyclinT1 was less than 5 µM.

As to `COc1cnccc1-c1ccnc(Nc2cccc(Cl)c2)n1` [Compound 45, (3-Chloro-phenyl)-[4-(3-methoxy-pyridin-4-yl)-pyrimidin-2-yl]-amine], the IC50 against CDK2/cyclinA is less than 5 µM; on CDK5, less than 5 µM; against CDK7/cyclinH/MAT1, greater than 50 µM; in test [1], less than 5 µM; on CDK1/cyclinB, less than 5 µM; against CDK4, 5 to 15 µM. Moreover, on CDK9/cyclinT1, the IC50 was less than 5 µM.

For `COc1cnccc1-c1ccnc(Nc2cccc(S(C)(=O)=O)c2)n1` [Compound 46, (3-Methanesulfonyl-phenyl)-[4-(3-methoxy-pyridin-4-yl)-pyrimidin-2-yl]-amine], the IC50 against CDK2/cyclinA is less than 5 µM; against CDK5, less than 5 µM; against CDK7/cyclinH/MAT1, less than 5 µM; in test [1], less than 5 µM; at CDK1/cyclinB, less than 5 µM; against CDK4, 5 to 15 µM. The compound further came in with an IC50 at CDK9/cyclinT1 of less than 5 µM.

Take `NCCNc1ncccc1-c1ccnc(Nc2cccc(Cl)c2)n1` [Compound 52, N-{3-[2-(3-Chloro-phenylamino)-pyrimidin-4-yl]-pyridin-2-yl}-ethane-1,2-diamine]: the concentration for half-maximal inhibition (IC50) (against CDK2/cyclinA; at CDK5; at CDK7/cyclinH/MAT1; in test [1]; on CDK1/cyclinB; against CDK4) was less than 5 µM each time. Also, the IC50 on CDK9/cyclinT1 is less than 5 µM.

As for `NCCCNc1ncccc1-c1ccnc(Nc2cccc(Cl)c2)n1` [Compound 55, N-{3-[2-(3-Chloro-phenylamino)-pyrimidin-4-yl]-pyridin-2-yl}-propane-1,3-diamine], the IC50 (against CDK2/cyclinA; against CDK5; on CDK7/cyclinH/MAT1; in test [1]; on CDK1/cyclinB; against CDK4) was less than 5 µM in each case. Also, the IC50 on CDK9/cyclinT1 is less than 5 µM.
